Source: article PMC7140522, “The Pyrazolo[3,4-d]pyrimidine Derivative, SCO-201, Reverses Multidrug Resistance Mediated by ABCG2/BCRP” (Cells, 2020)
Read-outs that look alike come from different tables or passages of the source.

Experiments:
CYP3A = test: CYP induction in human hepatocytes, CYP3A mRNA; type: in vitro ADME; details: plated human hepatocytes
ABCG2 = target: T1, ABCG2 (Homo sapiens, UniProt Q9UNQ0); test: Pheophorbide A accumulation assay in MDCK cells; type: cell-based; details: flow cytometry
T1 construct: expressed in transfected cells; host or cells: MDCK-II (canine kidney)
Description: 67 literature as a standard inhibitor for potency assessment of new compounds, was used as a
69 intra cellular fluorescence values in the steady state measured by flow cytometry for each
73 experiment is depicted.

[1] = system: CYP1A, CYP2B6, CYP2C8, CYP2C9, CYP2C19, CYP2D6, CYP3A; test: in vitro; details: both, human, pooled human liver microsomes, pH 7.4
Method: The reaction was initiated by adding a Nicotinamide adenine dinucleotide phosphate (NADPH)-generating system. The reaction was allowed for 10 min and stopped by transferring the reaction mixture to acetonitrile/methanol. Samples were mixed and centrifuged. Supernatants were used for HPLC-MS/MS of the respective metabolite.
Data analysis: Peak areas corresponding to the metabolite were recorded. The percent of control activity was calculated by comparing the peak area in the presence of the test compound to the control samples containing the same solvent. […] The IC50 value (concentration causing a half-maximal inhibition of the control value) was determined by non-linear regression analysis of the concentration–response curve using the Hill equation.

BCRP [2] = target: T2, BCRP (Homo sapiens, UniProt Q9UNQ0); test: Cellular dye efflux assay (Hoechst 33342) in HT29SN-38-RES cells; type: cell-based; design: endogenous in cells; host or cells: HT29 SN-38-RES (drug-selected HT29)
T2 sequence (Q9UNQ0 1-655): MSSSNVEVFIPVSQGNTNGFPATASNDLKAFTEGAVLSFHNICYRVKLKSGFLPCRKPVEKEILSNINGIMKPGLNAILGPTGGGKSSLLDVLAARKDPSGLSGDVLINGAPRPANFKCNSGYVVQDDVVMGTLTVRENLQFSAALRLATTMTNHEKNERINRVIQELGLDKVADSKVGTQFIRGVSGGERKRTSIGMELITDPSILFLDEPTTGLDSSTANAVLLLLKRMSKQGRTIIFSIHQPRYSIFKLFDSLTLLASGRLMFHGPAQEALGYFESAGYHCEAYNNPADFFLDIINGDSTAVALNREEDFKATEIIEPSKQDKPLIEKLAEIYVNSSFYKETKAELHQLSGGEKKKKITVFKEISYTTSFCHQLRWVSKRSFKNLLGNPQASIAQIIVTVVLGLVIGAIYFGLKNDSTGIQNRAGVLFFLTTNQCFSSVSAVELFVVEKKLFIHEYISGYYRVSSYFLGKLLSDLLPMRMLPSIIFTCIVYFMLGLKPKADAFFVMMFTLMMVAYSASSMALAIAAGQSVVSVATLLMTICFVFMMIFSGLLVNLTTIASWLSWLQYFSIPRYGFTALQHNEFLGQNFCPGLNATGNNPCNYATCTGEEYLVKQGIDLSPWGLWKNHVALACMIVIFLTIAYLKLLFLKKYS
Method: HT29 cells were seeded either into a 96-well Nunclon plate (Thermo Fisher Scientific, Roskilde, Denmark) at a density of 6000 cells/well (for Celigo Imaging Cytometry) or into a Nunc 6-well plate at a density of 150,000 cells/well (for fluorescence microscopy). […] Then, the cells were washed with ice-cold PBS to remove excess Hoechst dye. Drugs were added again and the cells were incubated for 1h at 37 °C. The plates were analyzed with either fluorescence microscopy (6-well plates) or imaging cytometry (96-well plates). For the Celigo Imaging Cytometry (Lawrence, MA, USA), the application “Target 1 + 2 (merge)” was used, and the mean fluorescence intensities were measured and data presented as percentage of parental control.

BCRP [3] = target: T2, BCRP; test: Fluorometric transporter inhibition, BCRP-CHO; type: in vitro ADME; details: Hoechst 33342 substrate
Method: Cells were seeded in a 96-well plate (20,000 cells/well) and used on days 2 or 3 post-seeding. […] Subsequently, substrate was added to the plate followed by 20 min incubation at 37 °C. The plate was then washed with cold assay buffer followed by fluorescence reading on a plate reader. The tested transporters, cell lines, substrates, and reference inhibitors are shown in the Supplementary Materials (Tables S1 and S2).
110 Table S1. […]
120 transporters (P-gp and BCRP), increased fluorescence signal represents inhibition of the transporter activity.
The IC50 values are shown for the analysed transporters with […]

[4] = design: method as in PMID 26260222; details: cited from earlier work
CYP1A [5] = target: CYP1A (Homo sapiens, UniProt P05177)
CYP2B6 = test: CYP induction in human hepatocytes, CYP2B6 mRNA; type: in vitro ADME; details: plated human hepatocytes
CYP1A [6] = test: CYP induction in human hepatocytes, CYP1A enzyme activity; type: in vitro ADME
CYP2C9 = CYP2C9 (Homo sapiens, UniProt P11712); test: CYP inhibition, CYP2C9; type: in vitro ADME; details: Human liver microsomes, diclofenac substrate
ABCG2 (BCRP) = target: T3, ABCG2 (BCRP) (Homo sapiens, UniProt Q9UNQ0); test: Hoechst 33342 accumulation assay in MDCK-II-BCRP cells; type: cell-based; details: MDCK cells overexpressing BCRP, steady-state fluorescence
T3 construct: expressed in transfected cells; host or cells: MDCK-II (canine kidney)
Method: Dose–response curves were fitted by nonlinear regression using the four-parameter or three-parameter logistic equation, whichever was statistically preferred (GraphPad Prism, version 6.0, San Diego, CA, USA).
46 72 hours with the indicated concentrations of drugs.
49 example is shown. Error bars indicate standard deviations.
57 was used as a comparator.
58 tested and fluorescence values in the steady state measured for each concentration. The IC50-values
A representative experiment is depicted.

BCRP [7] = target: T2, BCRP; test: […] ATPase assay with recombinant BCRP membranes; type: biochemical; design: purchased Solvo Biotechnology (via Sigma-Aldrich/Merck) SB-BCRP-M
Method: After incubation with test compounds, MgATP was added to each well and incubated at 37 °C for 10 min. The ATPase reaction was stopped by the addition of 1x Developer solution at room temperature (RT). Two minutes after, 100 µL Blocker solution was added and the plate was incubated for 30 min at 37 °C for 30 min. The optical densities were measured at 620 nm using a PowerWave X Microplate spectrophotometer (BioTek, Bad Friedrichshall, Germany).

[8] = Donor 1, read-out: Mean Fold Induction of mRNA at 1× 10^−4 M
[9] = Donor 2, read-out: Mean Fold Induction of mRNA at 1× 10^−4 M
[10] = Donor 3, read-out: Mean Fold Induction of mRNA at 1× 10^−4 M

Chain of CYP1A (Homo sapiens, UniProt P05177) (P05177 whole entry): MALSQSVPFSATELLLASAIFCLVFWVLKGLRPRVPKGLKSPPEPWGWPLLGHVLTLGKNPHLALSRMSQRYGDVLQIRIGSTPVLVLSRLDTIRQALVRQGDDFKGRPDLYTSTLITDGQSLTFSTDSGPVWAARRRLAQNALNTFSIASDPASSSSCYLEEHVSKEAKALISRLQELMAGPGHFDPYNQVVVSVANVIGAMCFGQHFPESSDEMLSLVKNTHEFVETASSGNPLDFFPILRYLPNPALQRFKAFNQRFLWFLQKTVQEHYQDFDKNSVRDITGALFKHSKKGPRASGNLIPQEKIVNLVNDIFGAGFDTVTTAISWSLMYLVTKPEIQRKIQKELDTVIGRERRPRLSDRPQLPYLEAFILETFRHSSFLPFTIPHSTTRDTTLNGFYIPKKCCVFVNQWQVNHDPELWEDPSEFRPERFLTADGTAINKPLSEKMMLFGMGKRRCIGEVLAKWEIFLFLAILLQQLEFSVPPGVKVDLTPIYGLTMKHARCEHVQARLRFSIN
Chain of CYP2C9 (P11712 whole entry): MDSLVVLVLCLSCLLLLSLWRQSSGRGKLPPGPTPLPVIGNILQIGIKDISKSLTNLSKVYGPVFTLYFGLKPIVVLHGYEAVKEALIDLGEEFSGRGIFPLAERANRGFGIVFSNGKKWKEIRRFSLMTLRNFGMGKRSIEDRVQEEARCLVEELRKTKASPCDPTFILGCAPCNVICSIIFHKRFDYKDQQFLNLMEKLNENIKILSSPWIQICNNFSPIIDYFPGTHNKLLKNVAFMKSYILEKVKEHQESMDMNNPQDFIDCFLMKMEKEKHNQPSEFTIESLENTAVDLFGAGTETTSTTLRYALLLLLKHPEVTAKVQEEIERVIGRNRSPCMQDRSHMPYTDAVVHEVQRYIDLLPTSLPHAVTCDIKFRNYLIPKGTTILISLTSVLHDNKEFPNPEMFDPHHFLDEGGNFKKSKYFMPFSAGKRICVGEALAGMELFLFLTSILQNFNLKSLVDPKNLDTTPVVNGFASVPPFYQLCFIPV

For Nc1nc(-c2ccccc2)nc2[nH]nc(Nc3ccc(C(F)(F)F)cc3)c12 [SCO-201], the fold induction at 2 days (CYP3A; [8]) was 0.25, the fold induction at 2 days (CYP3A; [9]) was 0.25 and the fold induction at 2 days (CYP3A; [10]) was 0.32. The IC50 (ABCG2) was 145 nM, the IC50 at 10 min [1] was no less than 100000 nM and the “Hoechst accumulation in resistant cells” value (BCRP [2]; fluorescence microscopy and imaging cytometry) was “accumulated to the level of the parental control cells”. The IC50 (BCRP [2]; imaging cytometry, read-out: IC50, accumulation of Hoechst dye) was 450 nM, the IC50 (BCRP [3]) was 1700 nM and the stability in serum [4] was “stable in serum”. It also gave an IC50 (CYP1A [5]) greater than 100000 nM, a fold induction at 2 days (CYP2B6; [8]) of 0.17 and a fold induction at 2 days (CYP2B6; [9]) of 0.52. For the same compound, the fold induction at 2 days (CYP2B6; [10]) was 0.45, the “Mean Fold Enzyme Activity Induction at 1 × 10^−4 M” value (shortened to “Mean Fold Enzyme Activity Induction”) (CYP1A [6]; Donor 1) was 1 and the “Mean Fold Enzyme Activity Induction” value (CYP1A [6]; Donor 2) was 0.7. For the same compound, the “Mean Fold Enzyme Activity Induction” value (CYP1A [6]; Donor 3) was 0.7, the IC50 (CYP2C9) was greater than 100000 nM and the IC50 (ABCG2 (BCRP)) was 175 nM. For the same compound, the “ATPase activity of BCRP, sulfasalazine-stimulated” value (BCRP [7]; SCO-201 added to sulfasalazine-stimulated BCRP) was “decreased in a dose-dependent manner”, the “ATPase activity of BCRP, basal” value (BCRP [7]; in the absence of sulfasalazine) was “decreased dose-dependently” and the “SN-38-stimulated ATPase activity of BCRP” value (BCRP [7]; in the presence of 0.5 µM or 1.5 µM SCO-201) was “shifted downwards”.
